# Non-standard residues stand in square brackets, D forms with d. Residues, ends and D or L forms follow the SMILES beside them. Phe(4-Br) = N[C@@H](Cc1ccc(Br)cc1)C(=O)O; NMeY = CN[C@@H](Cc1ccc(O)cc1)C(=O)O; Nle = CCCC[C@H](N)C(=O)O
# Tests used:
# human MC4R = human MC4R (Homo sapiens, UniProt P32245); assay: Intracellular cAMP levels in live cells, MC3R selectivity relative to MC4R; format: cell-based; details: cAMP assays in human MC3R and human MC4R stable cell lines
# in vitro = assay: in vitro
# Procedure: Pooled mouse plasma was prepared and stored at −80° C. prior to use. 396 μL mouse plasma was incubated at 37° C. for 5 minutes in 1.5 mL microcentrifuge tubes. 4 μL of 100 μM test or control compound/peptide was added to each tube and incubated for 0.5, 15, 30, 60, 120, or 240 minutes. An aliquot of 40 μL of each reaction was stopped by the addition of 4 volume of cold acetonitrile containing 200 ng/mL of Setmelanotide as an internal standard (IS). The incubation solution was centrifuged at 3500 rpm for 10 minutes to precipitate protein. The supernatant was used for LC/MS/MS analysis. The natural log peak area ratio (compound peak […] area/internal standard peak area) was plotted against time and the gradient of the line determined.
# human MC4R, sequence (P32245 whole entry): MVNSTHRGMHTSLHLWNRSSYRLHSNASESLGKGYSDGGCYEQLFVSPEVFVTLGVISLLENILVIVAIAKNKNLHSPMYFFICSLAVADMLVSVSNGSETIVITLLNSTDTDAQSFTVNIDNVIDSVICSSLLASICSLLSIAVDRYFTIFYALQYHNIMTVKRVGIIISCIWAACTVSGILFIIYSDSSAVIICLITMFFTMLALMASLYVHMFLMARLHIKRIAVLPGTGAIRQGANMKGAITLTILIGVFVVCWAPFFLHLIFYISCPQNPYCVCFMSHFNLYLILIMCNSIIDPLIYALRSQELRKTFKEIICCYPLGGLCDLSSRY
Structure (SMILES),MC3R selectivity (relative to MC4R) (human MC4R),"half-life at 1 µM (in vitro; mouse, plasma) [min]","remaining at 5 min, 1 µM (in vitro; mouse, plasma) [%]","remaining at 0.25 h, 1 µM (in vitro; mouse, plasma) [%]","remaining at 0.5 h, 1 µM (in vitro; mouse, plasma) [%]","remaining at 1 h, 1 µM (in vitro; mouse, plasma) [%]","remaining at 2 h, 1 µM (in vitro; mouse, plasma) [%]","Mouse Plasma Stability, time point 0 min (in vitro; pooled mouse plasma, 37° C.) [%]",further results
"CCCC[C@H](NC(=O)[C@@H](NC(=O)[C@H](Cc1ccc(O)cc1)NC)C(C)C)C(=O)N[C@H](C)C(=O)N[C@@H](Cc1c[nH]cn1)C(=O)N[C@@H](Cc1ccccc1)C(=O)N[C@@H](CCCNC(=N)N)C(=O)N[C@H](Cc1c[nH]c2ccccc12)C(=O)N[C@@H](CC(=O)O)C(N)=O [CTX-1141, NMe-Tyr-Val-Nle-D-Ala-His-Phe-Arg-D-Trp-Asp] (H-[NMeY]V[Nle][dA]HFR[dW]D-NH2)",55,> 240,106,118,95,91.8,108,100,"remaining at 4 h, 1 µM (in vitro; mouse, plasma): 63.9%"
"CCCC[C@H](NC(=O)[C@@H](NC(=O)[C@@H](N)Cc1ccc(O)cc1)C(C)C)C(=O)N[C@H](C)C(=O)N[C@@H](Cc1c[nH]cn1)C(=O)N[C@@H](Cc1ccc(Br)cc1)C(=O)N[C@@H](CCCNC(=N)N)C(=O)N[C@H](Cc1c[nH]c2ccccc12)C(=O)N[C@@H](CC(=O)O)C(=O)N[C@@H](CCCNC(=N)N)C(=O)N[C@@H](Cc1ccccc1)C(=O)NCC(=O)O [CTX-2120, Tyr-Val-Nle-D-Ala-His-Phe(4-Br)-Arg-D-Trp-Asp-Arg-Phe-Gly] (H-YV[Nle][dA]H[Phe(4-Br)]R[dW]DRFG-OH)",173,2.01,17.9,0.78,0.13,0.09,,100,
"CC(C)[C@H](NC(=O)[C@@H](N)Cc1ccc(O)cc1)C(=O)N[C@@H](CCC(=O)O)C(=O)NCC(=O)N[C@@H](Cc1c[nH]cn1)C(=O)N[C@@H](Cc1ccccc1)C(=O)N[C@@H](CCCNC(=N)N)C(=O)N[C@H](Cc1c[nH]c2ccccc12)C(=O)N[C@@H](CC(=O)O)C(=O)N[C@@H](CCCNC(=N)N)C(=O)N[C@@H](Cc1ccccc1)C(=O)NCC(N)=O [CTX-1105, Tyr-Val-Glu-Gly-His-Phe-Arg-D-Trp-Asp-Arg-Phe-Gly] (H-YVEGHFR[dW]DRFG-NH2)",500,2.38,23.4,1.51,0.3,0.27,0.12,100,
"CCCC[C@H](NC(=O)[C@@H](NC(=O)[C@@H](N)Cc1ccc(O)cc1)C(C)C)C(=O)N[C@H](C)C(=O)N[C@@H](Cc1c[nH]cn1)C(=O)N[C@@H](Cc1ccccc1)C(=O)N[C@@H](CCCNC(=N)N)C(=O)N[C@H](Cc1c[nH]c2ccccc12)C(=O)N[C@@H](CC(=O)O)C(=O)N[C@@H](CCCNC(=N)N)C(=O)N[C@@H](Cc1ccccc1)C(=O)NCC(=O)O [CTX-1103, Tyr-Val-Nle-D-Ala-His-Phe-Arg-D-Trp-Asp-Arg-Phe-Gly] (H-YV[Nle][dA]HFR[dW]DRFG-OH)",229,1.46,9.3,0.21,0.03,0.02,,100,
"CCN(CC)CCNC(=O)c1ccc(N)cc1 [Procainamide, reference compound]",,,,,,,,,"Mouse Plasma Stability, time point 0 min (in vitro; mouse, 1 µM): 100.00; Mouse Plasma Stability, time point 5 min (in vitro; mouse, 1 µM): 101.53; Mouse Plasma Stability, time point 15 min (in vitro; mouse, 1 µM): 109.16; Mouse Plasma Stability, time point 30 min (in vitro; mouse, 1 µM): 103.05; Mouse Plasma Stability, time point 60 min (in vitro; mouse, 1 µM): 104.43; Mouse Plasma Stability, time point 120 min (in vitro; mouse, 120 min, 1 µM): 110.61; Mouse Plasma Stability, time point 240 min (in vitro; mouse, 240 min, 1 µM): 108.17"
"CCN(CC)CCOC(=O)c1ccc(N)cc1 [Procaine, reference compound]",,,,,,,,100,"half-life at 1 µM (in vitro; mouse, pooled mouse plasma): 3.81 min; Mouse Plasma Stability, time point 5 min (in vitro; pooled mouse plasma, 37° C.): 40.3%; Mouse Plasma Stability, time point 15 min (in vitro; pooled mouse plasma, 37° C., in % (unit assumed)): 8.80; Mouse Plasma Stability, time point 30 min (in vitro; pooled mouse plasma, 37° C.): 2.15%; Mouse Plasma Stability, time point 60 min (in vitro; pooled mouse plasma, 37° C.): 0.44%"

# Source: patent publication US20240287154A1, “MC3R AGONIST PEPTIDES” (The Regents of the University of Michigan, priority 2021, published 2024)
